# Measurements published in patent publication US11944685B2, “Preparation method and application of novel injection abiraterone derivative” (TIANJIN HAIRUNJIAHE INNOVATIVE PHARMACEUTICAL RESEARCH …, priority 2021, dated 2024).
# Tests used:
# [1] = test system: human prostate cancer cells (DU145); conditions: 2.5-160 μM, incubation 48 hours, CCK8; compared with Abiraterone AA
# Protocol: (§1) Cell survival rate tested by CCK8 method: after the solution was pipetted from the wells, each well was added with 10 μl of CCK8 reagent and 100 μl of serum-free medium for further culture for 4 hours. An absorbance value of each well at 450 nm was determined using a microplate reader.
# [2] = test system: human prostate cancer cells (LNCaP); conditions: 2.5-160 μM, incubation 48 hours, CCK8; compared with Abiraterone AA
# Protocol: as §1
# [3] = Organ indexes and body weights of prostate cancer LNCaP tumor-bearing mice; format: in vivo, nude mice; conditions: 28 days; for body weights of the mice: vs normal group
# Protocol: A normal group (Normal) was not given any treatment; a model group (NS) received a daily injection of an equal volume of physiological saline; an AA group (150 mg/kg/d p.o.) was administrated intragastrically, once daily; and an AA-DTPA group (35 mg/kg/w i.v.) and an AA-DTPA group (52.5 mg/kg/w i.v.) were administrated from tail veins once weekly.
# Diameters of the xenograft tumors of the nude mice were measured with vernier calipers, and the anti-tumor effect of the Abiraterone was dynamically observed.
# Two days following the last administration, the mice were sacrificed, and hearts, livers, spleens, lungs, kidneys, and testes were dissected off and weighed, and organ indexes [organ index=organ weight/(body weight−tumor weight), unit: mg/g] were calculated.
# [4] = Toxicity study: blood routine, blood biochemistry and tissue pathology of healthy ICR male mice; format: in vivo; conditions: 28 days
# Protocol: The influence of the polyaminopolycarboxylic acid modified Abiraterone derivative AA-DTPA prepared in Example 5 on blood routine, blood biochemistry and pathological tissues of ICR healthy male mice following administration for 28 days includes the following steps:
# 20 ICR mice were selected, and were divided into 4 groups (NS group, positive control group AA 150 mg/kg/d p.o., and experimental groups AA-DTPA 35 mg/kg/w and 52.5 mg/kg/w i.v.), each of which had 5 mice.
# The mice were administrated intragastrically once daily, and administrated intravenously, […], and blood was sampled for submission following the treatment for 28 days; all mice were sacrificed by cervical dislocation, hearts, livers, spleens, lungs, kidneys, and testes were dissected and collected, and fixed with 10% formaldehyde; and after being embedded by paraffin, the organs were sectioned, and histopathological examination was performed after HE staining (see FIG. 13 for results from blood routine experiments, FIG. 14 for results from blood biochemistry experiments, and FIG. 15 for results from histopathological experiments).
# [5] = Pharmacokinetic study in rats (plasma, LC-MS/MS); format: in vivo, SD rats
# Protocol: Pharmacokinetics experiments of the polyaminopolycarboxylic acid modified abiraterone derivative AA-DTPA prepared in Example 2 in rats includes the following steps:
# A total of eight healthy male SD rats weighing 220+/−20 g were randomly divided into 2 groups, with 4 rats in each group; one group was administered with AA-DTPA from tail veins of the rats at a dose of 8 mg/kg in a volume of 0.2 ml/200 g rat; the other group was administrated intragastrically with AA at a dose of 30 mg/kg in a volume of 0.2 ml/200 g rat; blood samples were collected at time points of 5, 15, and 30 minutes, as well as 1, 2, 4, 6, 12, and 24 hours before and after administration for both groups; and at each time point, 0.5 ml of blood was sampled from canthi, and was placed in a heparinized plastic centrifuge tube, centrifugation was performed at 3000 r/min for 10 minutes, and plasma was separated therefrom.
# 50 μl of rat plasma samples+5 μl of methanol ice (1:1, v/v)+150 μl of precipitant were taken, and fully whirled and shaken for 3 minutes, a mixture was then centrifuged at 4° and 12000 r/min for 10 minutes, and a supernatant was pipetted, and analyzed with sample injection by LC-MS/MS (liquid chromatography-tandem mass spectrometry).
# [6] = test system: human prostate cancer LNCaP derived xenograft tumors; assay: Inhibition of growth of human prostate cancer LNCaP derived xenograft tumors of nude mice; conditions: for tumor inhibition effect compared with the AA group: 28 days; for tumor growth: treatment for 28 days
# [7] = healthy male ICR mice, 35 and 52.5 mg/kg/w i.v. vs AA 150 mg/kg/d p.o.
# [8] = healthy male ICR mice, 35 and 52.5 mg/kg/w i.v.
# [9] = intravenous injection (tail vein) 8 mg/kg
# [10] = intragastric administration 30 mg/kg
compound,measurement,setting,value
"CC12CCC(OC(=O)CN(CCN(CCN(CC(=O)O)CC(=O)O)CC(=O)O)CC(=O)O)CC1=CCC1C2CCC2(C)C(c3cccnc3)=CCC12 (stereo not drawn) [AA-DTPA, diethylenetriaminepentaacetic acid modified Abiraterone derivative]","in vitro anti-tumor effect (DU145), cell survival rate",[1],superior to the in vitro anti-tumor effect of Abiraterone AA
same,"in vitro anti-tumor effect (LNCaP), cell survival rate",[2],superior to the in vitro anti-tumor effect of Abiraterone AA
same,body weights of the mice,[3]; 35 mg/kg i.v. weekly,equivalent to those of the mice in the normal group
same,body weights of the mice,[3]; 52.5 mg/kg i.v. weekly,equivalent to those of the mice in the normal group
same,"indexes of hearts, livers, lungs, kidneys and testes vs model group",[3]; AA-DTPA treatment group (35 and 52.5 mg/kg/w i.v.),No significant difference
same,organ toxicity compared with AA under the treatment dose,[3]; LNCaP tumor-bearing mice,lower than that of the AA
same,histopathology of lungs,"[4]; 52.5 mg/kg/w i.v., HE staining",mild pathological changes
same,organ toxicity (histopathology),[4]; 35 and 52.5 mg/kg/w i.v.,no obvious organ toxicity
same,"histopathology of hearts, spleens, kidneys and testes","[4]; 35 and 52.5 mg/kg/w i.v., HE staining",no abnormal changes
same,effect on alanine aminotransferase and aspartate aminotransferase compared with AA group,[4]; [7],less effect
same,effect on number of lymphocytes and monocytes compared with AA group,[4]; [7],less effect
same,effect on blood biochemistry,[4]; [8],less effect
same,effect on blood routine,[4]; [8],less effect
same,toxicity compared with AA,[4]; healthy male ICR mice,less toxic than that of the AA
same,average clearance rate,[5]; [9],8.55 mL/min/kg
same,half-life period,[5]; [9],0.26 h
same,plasma concentration-time profile,[5]; [9],double exponential decay
same,tumor inhibition effect compared with the AA group,[6]; 35 mg/kg/w i.v. vs AA 150 mg/kg/d p.o.,better tumor inhibition effects
same,tumor growth,[6]; 35 mg/kg/w i.v.,significantly inhibited
same,tumor inhibition effect compared with the AA group,[6]; 52.5 mg/kg/w i.v. vs AA 150 mg/kg/d p.o.,better tumor inhibition effects
same,tumor growth,[6]; 52.5 mg/kg/w i.v.,significantly inhibited
"CC12CCC(OC(=O)CN(CCN(CCN(CCN(CC(=O)O)CC(=O)O)CC(=O)O)CC(=O)O)CC(=O)O)CC1=CCC1C2CCC2(C)C(c3cccnc3)=CCC12 (stereo not drawn) [AA-TTHA, triethylenetetramine hexaacetic acid modified Abiraterone derivative]","in vitro anti-tumor effect (DU145), cell survival rate",[1],superior to the in vitro anti-tumor effect of Abiraterone AA
same,"in vitro anti-tumor effect (LNCaP), cell survival rate",[2],superior to the in vitro anti-tumor effect of Abiraterone AA
"C[C@]12CC[C@H](O)CC1=CC[C@@H]1[C@@H]2CC[C@]2(C)C(c3cccnc3)=CC[C@@H]12 [AA, Abiraterone]",heart indexes,[3]; 150 mg/kg/d p.o.,slight decline
same,"indexes of livers, lungs and kidneys vs model group",[3]; 150 mg/kg/d p.o.,no significant difference
same,testis indexes,"[3]; 150 mg/kg/d p.o., compared with normal group and model group",testicular atrophy and a sharp decrease in testis indexes
same,"histopathology of hearts, spleens, kidneys and testes","[4]; 150 mg/kg/d p.o., HE staining",no abnormal changes
same,histopathology of livers,"[4]; 150 mg/kg/d p.o., HE staining",mild pathological changes
same,histopathology of lungs,"[4]; 150 mg/kg/d p.o., HE staining",mild pathological changes
same,absorption in vivo,[5]; [10],absorbed slowly
same,peak value of AA concentration in blood plasma,[5]; [10],15.28 ± 1.24 ng/mL
same,time to peak plasma concentration,[5]; [10],0.5 h
same,half-life,"[5]; male, SD, rat, plasma, po, intragastric administration 30 mg/kg, read-out: half-life period (converted)",8.46 h
